Experimental data published in patent US7919127B2, “Pulsatilla spp. extracts effective in brain function” (priority 2005, dated 2011).
“And” between values parts separate entries of the source, which are not always exact repeats. Identical values can stand only once.

Experiments:
[1] = system: rats treated with scopolamine; assay: Passive avoidance test, scopolamine-induced memory impairment; assay type: in vivo, rat; conditions: oral, 30 mg/L; untreated control = 100%, scopolamine group = 0%
Description: The experimental device used was a shuttle box 50 cm (W)×15 cm (L)×40 cm (H). The shuttle box was divided into two rooms via a guillotine door, where one room was a light room provided with illumination while the other room was a dark room covered entirely with a black cloth thereby allowing the difference in illuminating effect. First, a rat was placed in the light room and the guillotine door was opened while the light was being turned on. Then, the rat entered the dark room within 20 seconds to seek a dark place by instinct and as soon as the rat entered the dark room the guillotine door was closed. […] The next day, the above trained rats were placed again into the light room with the light on and allowed to enter the dark room. Here, the rats were subject to an electric shock of 0.8 mA for 3 seconds via an electronic grid installed on the bottom of the room. Twenty four hours after the above acquisition trial, the rats were again placed into the light room with the light on and allowed to enter the dark room. Here, the normal rats hesitated to enter the dark room by remembering the electric shock of the previous day. The latency time was measured by setting up the maximum latency time at 300 seconds. […]

[2] = system: α-secretase; assay: Increase of α-secretase activity (sAPPα amount, western blot densitometry, W4 cell line); assay type: cell-based; conditions: positive control, final concentration 1 mM, W4 cells, negative control average = 100.0
Method: To study the effect of 70% methanol solution fraction obtained from Example 2 on the above-mentioned APP process, an experiment was conducted as follows using W4 cell line which produces APP in large amount.
The cells of W4 cell line were treated with 70% methanol solution fraction and then cultured for about 12 hours.

Compound | prevention of memory impairment [1] [%] | Relative Density (sAPPα), Average ([2]; average of 3 trials) | Relative Density (sAPPα) ([2]; individual trials)
Nc1c2c(nc3ccccc13)CCCC2 [tacrine] | 35 |  | 
CCCC(=O)O[C@@H]1[C@@H](C)[C@@]2(O)[C@@H](C=C(CO)C[C@]3(O)C(=O)C(C)=C[C@@H]23)[C@@H]2C(C)(C)[C@]12OC(=O)CCC [PDBu, Phorbol 12,13-dibutyrate] |  | 289.3 | 226.5 and 314.1 and 327.2
